From US20220089540A1 (Board of Trustees of Michigan State University, priority 2019, published 2022)
Values joined by “and” are separate entries in the source; they are usually repeats but may differ in a detail not shown here. Equal values may be shown once. Read-outs that look alike come from different tables or passages of the source.

What was measured:
LogD at pH 7.4 = type: physicochemical; conditions: pH 7.4 buffer
Experimental: Note that for Table 6, Log D is the distribution constant, which is descriptor of the lipophilicity of a molecule. This was determined using an aqueous phase that was adjusted to pH 7.4 using a buffer.

SREBP = SREBP induction in human liver (HepG2) cells, RT-PCR; type: cell-based; design: key to SREBP: fold induction vs DMSO control; conditions: for SREBP activation: fold induction compared to DMSO, several values per cell, Table 6; for SREBP: 300 nM, Control 1.00, lower numbers indicate better safety, Table 2
Experimental: The SREBP transcription factor is involved in triglyceride synthesis, and its activation correlates with increased triglycerides in vivo. […] Lower numbers indicate better safety. […] Lower numbers indicate better safety. Also, for Table 6, SREBP activation was measured as fold induction compared to DMSO, where a lower value indicates the compound is an improvement over a control.

[1] = test system: inducible nitric oxide synthase (iNOS); assay: iNOS suppression / NO assay in LPS-stimulated macrophages or RAW264.7 cells (Griess reaction); type: cell-based, mouse; conditions: for activity at 0.3 µM / activity at 0.125 µM / activity at 0.5 µM / activity at 0.1 µM: Mus musculus; for activity at 0.3 µM / activity at 0.1 µM: RAW264.7, 24 h; for activity at 0.1 µM: at 100 nM
Experimental: Macrophages or RAW264.7 like-cells were treated with various concentrations of rexinoids and stimulated with lipopolysaccaride (LPS) to activate inducible nitric oxide synthase (iNOS) to produce nitric oxide. This in vitro iNOS assay was rapid, reproducible, quantitative and predictive. Nitric oxide is implicated in the apoptosis of cancer cells via regulation of RXRs. There is a tight correlation between the % reduction of iNOS and efficacy in preclinical lung cancer models. Lower numbers indicate higher efficacy.
RAW264.7 cells were incubated with 300 nM rexinoids and stimulated with 1-2 ng/ml lipopolysaccaride (LPS) for 24 hours to activate inducible nitric oxide synthase (iNOS) to produce nitric oxide. Nitric oxide released into the media was measured by the Griess reaction.
Also, for Table 6, the iNOS suppression is the percent of the LPS-stimulated control where the compounds were measured at 100 nM or 300 nM.
Macrophages or RAW264.7 cells were treated with various concentrations of rexinoids listed in Table 7 and stimulated with lipopolysaccaride (LPS) to activate inducible nitric oxide synthase (iNOS) to produce nitric oxide. Nitric oxide (NO) is implicated in the apoptosis of cancer cells via regulation of RXRs. There is a tight correlation between the % reduction of iNOS and efficacy in preclinical lung cancer models. The in vitro iNOS assay is rapid, reproducible, quantitative and predictive, as NO production is measured in culture medium using the Griess reaction. Values are either presented as % inhibition or IC50 values.

human RXRa = biological target: T1, human RXRa (Homo sapiens, UniProt P19793); assay: RXR activation luciferase reporter assay; type: cell-based; conditions: luciferase, Control 0, higher numbers indicate higher potency
T1 sequence (P19793 1-462): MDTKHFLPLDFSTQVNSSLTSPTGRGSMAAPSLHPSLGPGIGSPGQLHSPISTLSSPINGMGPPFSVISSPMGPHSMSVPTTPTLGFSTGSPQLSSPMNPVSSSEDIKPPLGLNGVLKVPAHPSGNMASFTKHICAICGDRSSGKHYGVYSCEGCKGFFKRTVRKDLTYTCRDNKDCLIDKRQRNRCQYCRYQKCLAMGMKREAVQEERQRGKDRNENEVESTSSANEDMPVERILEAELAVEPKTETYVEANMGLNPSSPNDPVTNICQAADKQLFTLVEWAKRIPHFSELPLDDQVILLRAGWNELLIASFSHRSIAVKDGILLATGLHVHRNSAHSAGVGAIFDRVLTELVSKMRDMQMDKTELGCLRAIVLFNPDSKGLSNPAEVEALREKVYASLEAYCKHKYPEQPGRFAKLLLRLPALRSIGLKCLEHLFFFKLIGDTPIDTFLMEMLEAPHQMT
Excerpt: Rexinoids are agonists for the retinoid X receptors (RXRs). In this assay, the human RXRa promoter is functionally linked to a luciferase reporter gene. Changes in luciferase expression served as a sensitive surrogate measure of RXR activity. Higher numbers indicate higher potency.

PD-L1 = PD-L1 induction in macrophages or RAW264.7 cells with cancer cell conditioned media (flow cytometry); type: cell-based, mouse; conditions: for PD-L1: Table 2, Control 39.8, higher numbers indicate better upregulation; for PD-L1 Levels: Table 4, Control 43.3
Experimental: RAW 264.7 mouse macrophage-like (ATCC) and E18-14C-27 (Wu et al., Cancer Res. 62, 6376-6380 (2002)) cells were cultured in DMEM supplemented with 10% fetal bovine serum (FBS). RAW 264.7 cells were cultured at 50000/well in a 6 well plate for 24 hours to determine PD-L1 levels. E18-14C-27 cells were cultured for 72 hours in the presence of LG268 for protein levels. Conditioned media was collected from E18-14C-27 at 60-70% confluence for 24 hours; media was then collected and centrifuged at 900 rpm for 5 minutes to eliminate any cell debris.
For PD-L1 staining, RAW 264.7 cells were plated at 25000 cells/ml in 6 well plates for 24 hours before adding conditioned media from E18-14C-27 and LG268. RAW 264.7 cells were cultured for additional 24 hours with E18-14C-27 conditioned media and LG268. […] THP-1 cells were stained and analyzed for the levels of PD-L1 following the same protocol.
Inhibitory receptors on lymphocytes such as PD-1 (programmed cell death protein 1) are important immune checkpoints that protect against autoimmunity as the interaction between PD-L1 (ligand) and the PD-1 receptor expressed on immune cells suppresses T cell activity. Immuno-oncology is revolutionizing cancer treatment, and enormous research efforts are ongoing to identify drugs that upregulate PD-L1 so that they can be combined with checkpoint inhibitors to boost efficacy. Macrophages or RAW264.7 cells are treated with conditioned media from cancer cells and rexinoids, and PD-L1 expression determined by flow cytometry. Higher numbers indicate better upregulation of PD-LI.
Using methods described herein, macrophages or RAW264.7 cells were treated with selected rexinoids and with conditioned media from cancer cells. Structures of the rexinoids are shown below.
PD-L1 expression was determined by flow cytometry.

[2] = test system: mammary gland tumors of MMTV-Neu mice; assay: MMTV-Neu mouse model of HER2 positive breast cancer, rexinoid in diet; conditions: 100 mg/kg diet; LG268 5 days, CW-V-125 10 days; western blot and/or immunohistochemistry
Experimental: Tumors or mammary glands were homogenized in EBC buffer (1M Tris pH 8, 5M NaCl) with the same protease inhibitors and 10% NP-40 and incubated on ice for 30 min. Protein concentrations were determined by the BCA assay (Sigma-Aldrich). Proteins were resolved by SDS-PAGE, transferred to a nitrocellulose membrane and analyzed with the following antibodies: vinculin, p-STAT1, p-STAT3, p-STAT5 and mouse and rabbit secondary antibodies (Cell Signaling); PD-1, CD206 (Abcam); PD-L1 (R&D). ImageJ was used to quantify the immunoblots, and results were plotted and statistically analyzed using Prism 6. All images shown are representative of 3 independent experiments.
One third of the tumor, mammary gland and spleen removed from MMTV-neu or MMTV-PyMT mice were minced separately and incubated in digestion media consisting of collagenase (300 U/ml, Sigma), dispase (1 U/ml, Worthington), and DNAse (2 U/ml, Calbiochem) for 30 minutes at 37° C. with stirring. Cells were then passed through a 40 μm cell strainer (BD Falcon), and red blood cells eliminated with lysis solution. […] Propidium iodide staining was used to exclude dead cells.
One third of the tumor, spleen and one mammary was removed from MMTV-neu and PyMT mice and fixed in 10% phosphate-buffered formalin for 48 hours, embedded in paraffin blocks, and sectioned (5-6 μm). Hydrogen peroxide was used to quench endogenous peroxidase activity. Sections were immunostained with antibodies raised against CD206 (1:200, Abcam), Gr1 (1:40, BM8, R&D), CD8 (1:40, Biolegend), FOXP3 (1:50, EBiosciences), PD-1 (1:100, Abcam), PD-L1 (1:50, Abcam), cleaved caspase 3 (Cell Signaling) and visualized with biotinylated anti-rabbit or anti-rat secondary antibodies (Cell Signaling or Vector Labs). Signal was detected using a DAB substrate (Cell Signaling) following the manufacturer's recommendations. Sections were counterstained with hematoxylin (Vector Labs).
Both rexinoid treatments were 100 mg/kg of diet, which is equivalent to 25 mg/kg of body weight (FIG. 1B).

[3] = at 300 nM, percent of the LPS-stimulated control, lower is better, Table 6, read-out: iNOS suppression
[4] = RAW264.7, 125 nM, Control 100, lower numbers indicate higher efficacy, read-out: NO Assay
[5] = RAW264.7, 500 nM, Control 100, lower numbers indicate higher efficacy, read-out: NO Assay
[6] = percent of the LPS-stimulated control, lower is better, Table 6

| Compound | logD (LogD at pH 7.4) | SREBP activation (SREBP) | activity at 0.3 µM [1, 3] [%] | RXR assay (human RXRa; 100 nM) | RXR assay (human RXRa; 2500 nM) | PD-L1 (PD-L1; 100 nM) | SREBP (SREBP) | other results |
| --- | --- | --- | --- | --- | --- | --- | --- | --- |
| CC(C)(C)c1cc(C(C)(C)C)cc(C2(c3ccc(C(=O)O)cn3)CC2)c1 | 2.8 |  |  |  |  |  |  |  |
| C=C(c1ccc(C(=O)O)cc1)c1cc(C(C)C)c(OCC(C)C)cc1C [drawing 111] | 3.5 | 1.2 fold induction | 40 |  |  |  |  |  |
| CCCCN(c1cc(C(C)(C)C)cc(C(C)(C)C)c1)c1ccc(C(=O)O)cn1 [Compound 19] |  |  |  | 13422 | 24350 | 50.2 | 4.77 | activity at 0.125 µM [1, 4]: 45.6%; activity at 0.5 µM [1, 5]: 9.4% |
| C=C(c1ccc(C(=O)O)cc1)c1cc(C(C)(C)C)cc(C(C)(C)C)c1 [drawing 116] | 3.8 |  | 61 |  |  |  |  |  |
| C=C(c1ccc(C(=O)O)cc1)c1ccc(OCC(C)C)c(C(C)C)c1 [drawing 110] | 3 | 2 fold induction | 75 |  |  |  |  |  |
| CCN(c1cc(C(C)(C)C)cc(C(C)(C)C)c1)c1ccc(C(=O)O)cn1 [drawing 105] | 2.9 | 1.6 fold induction and 2.85 fold induction and 3.1 fold induction | 30 |  |  |  |  |  |
| CCN(c1ccc(C(=O)O)cc1)c1cc(C(C)(C)C)c(OC)c(C(C)(C)C)c1 [drawing 121] | 3.8 | 1.45 fold induction | 74 |  |  |  |  |  |
| CCN(c1ccc(C(=O)O)cc1)c1cc(C(C)(C)C)cc(C(C)(C)C)c1 [Compound 8, 4-[(3,5-di-tert-butylphenyl)(ethyl)amino]benzoic Acid] |  |  |  | 1009 | 23514 | 31.2 | 1.95 | activity at 0.125 µM ([1]; RAW264.7, read-out: NO Assay): > 80%; activity at 0.5 µM ([1]; RAW264.7, read-out: NO Assay): 31.5% |
| CCCN(c1cc(C(C)(C)C)cc(C(C)(C)C)c1)c1ccc(C(=O)O)cn1 [drawing 117] | 3.4 | 1.95 fold induction and 2.9 fold induction | 13 |  |  |  |  | activity at 0.1 µM [1, 6]: 22% |
| CCN(c1ccc(C(=O)O)cc1)c1cc(C(C)(C)C)cc(C(C)(C)C)c1 [drawing 104] | 4 | 1.8 fold induction and 2.5 fold induction | 43 |  |  |  |  |  |
| C/C(=C/C=C/C(C)=C/C(=O)O)c1cc(C(C)(C)C)cc(C(C)(C)C)c1OCC(F)F [LG101506, reference compound] |  |  |  | 1077 | 558 | 67.2 | 1.12 | NO Assay ([1]; 125 nM, Control 100, lower numbers indicate higher efficacy): 56.3; NO Assay ([1]; 500 nM, Control 100, lower numbers indicate higher efficacy): 16.3 |
| CCN(c1ccc(C(=O)O)cc1)c1cc(C(C)C)c(OCC(C)C)cc1C [drawing 120] | 3.8 | 1.3 fold induction | 86 |  |  |  |  |  |
| Cc1cc(OCC(C)C)c(C(C)C)cc1C1(c2ccc(C(=O)O)cn2)CC1 | 2.6 |  |  |  |  |  |  |  |
| CC(C)(C)c1cc(N(CC2CC2)c2ccc(C(=O)O)cn2)cc(C(C)(C)C)c1 [drawing 118] | 3.4 |  | 13 |  |  |  |  | activity at 0.1 µM [1, 6]: 19% |
| CCN(c1cc(C(C)(C)C)cc(C(C)(C)C)c1)c1ncc(C(=O)O)cn1 [drawing 106] | 2.3 | 3.5 fold induction and 1.8 fold induction | 55 |  |  |  |  |  |
| CCN(c1ccc(C(=O)O)cn1)c1cc2c(cc1C)C(C)(C)CCC2(C)C [CW-V-125] |  |  |  |  |  |  |  | PD-L1 expression in tumors vs control [2]: increases; PD-L1 Levels (PD-L1; 100 nM): 72.5; PD-L1 Levels (PD-L1; 1000 nM): 69.9 |
| C=C(c1ccc(C(=O)O)cc1)c1cc(C(C)(C)C)cc(C(C)(C)C)c1 [Compound 3, 4-[1-(3,5-di-tert-butylphenyl)ethenyl]benzoic Acid] |  |  |  | 523 | 8163 | 26.5 | 1.14 | activity at 0.3 µM ([1]; read-out: iNOS (300 nM)): ~65%; activity at 0.125 µM ([1]; RAW264.7, read-out: NO Assay): 42.5%; activity at 0.5 µM ([1]; RAW264.7, read-out: NO Assay): 19.8% |
| CCCN(c1cc(C(C)(C)C)cc(C(C)(C)C)c1)c1ccc(C(=O)O)cn1 [Compound 13, 6-[(3,5-di-tert-butylphenyl)(propyl)amino]pyridine-3-carboxylic Acid] |  |  |  | 16063 | 26703 | 67.9 | 2.44 | activity at 0.125 µM [1, 4]: 94.5%; activity at 0.5 µM [1, 5]: 32% |
| CCN(c1cc(C(C)(C)C)cc(C(C)(C)C)c1)c1ncc(C(=O)O)cn1 [Compound 10, 2-[(3,5-di-tert-butylphenyl)(ethyl)amino]pyrimidine-5-carboxylic Acid] |  |  |  | 1007 | 17963 | 32 | 1.44 | activity at 0.125 µM ([1]; RAW264.7, read-out: NO Assay): 48.6%; activity at 0.5 µM ([1]; RAW264.7, read-out: NO Assay): 19% |
